Measurements from patent US5369104A, “Pyridazine compounds, their production and use” (Takeda Chemical Industries, Ltd., priority 1991, dated 1994).

Tested on: PAF-induced bronchoconstriction
Test: Action against PAF-induced bronchoconstriction in guinea pigs (Konzett-R6essler method)
Type: in vivo, guinea pig (male Hartley)
Conditions: guinea pig; 10 mg/Kg orally, 1 hour before PAF (1 μg/Kg, i.v.); recorded for 15 minutes
Experimental: (Action against PAF-induced bronchoconstriction in guinea pigs)
Male Hartley guinea pigs (body weight 500 g) were used. The bronchoconstriction reaction in the guinea pig which has intravenously received PAF (1 μg/kg) was measured by the Konzett-R6essler method. The trachea of the guinea pig with its back fixed was incised under anesthesia condition with urethane (intraperitoneal injection, 1.50 g/Kg) and connected with an artificial respirator via a cannula. The branch of the tracheal cannula was connected with a transducer (7020 type, Ugobasile). Air was sent to the trachea at the volume of 3-7 ml/stroke, at the stroke of 70 strokes/min. at load pressure of 10cm H2 O to lung and overflowed air volume was recorded with Rectegraph (Recte-Hori-8s, Sanei Sokuki) via the transducer. After the guinea pig was treated with galamine (1 mg/Kg, i.v.), PAF (1 μg/Kg) dissolved in a physiological saline solution was administered to the guinea pig via a jugular venous cannula and the bronchoconstriction reaction induced thereby was recorded for 15 minutes. The drug (10 mg/Kg) suspended in a 5% gum arabic solution was administered orally 1 hour before the injection of PAF.
Action against PAF-induced bronchoconstriction of guinea pigs

For `Cc1cc2nccn2nc1CCC(C)(C)CCS(N)(=O)=O` [Example 4, 6-(3,3-dimethyl-5-sulfamoyl-1-pentyl)-7-methylimidazo[1,2-b]pyridazine], the “Inhibition (%) of PAF-induced bronchoconstriction” value was 86%.
